Assay results taken from publication PMC6295194 (Science translational medicine, 2018).
Where a name gives a salt, the structure may show the parent alone.

Assays:
human NOP receptor = human NOP receptor (Homo sapiens, UniProt P41146); assay type: biochemical; settings: percentage of stimulation of standard full agonist N/OFQ (100%)
rhesus monkeys [1] = assay: Warm water tail-withdrawal assay; assay type: in vivo, rhesus monkeys (Macaca mulatta); settings: Macaca mulatta, sc, read-out: antinociception ED50
rhesus monkeys [2] = assay: Tolerance to antinociceptive effects after 4 weeks repeated administration; settings: 2 injections daily for 4 weeks: morphine 1.8 mg/kg, AT-121 0.03 mg/kg
rhesus monkeys [3] = assay: Physiological responses by radio-telemetry; assay type: in vivo, rhesus monkeys (Macaca mulatta); settings: 1 mg/kg i.m., single monkey
rhesus monkeys [4] = system: rhesus monkeys; parameters: species or system rhesus monkeys (Macaca mulatta); settings: rhesus monkey, in vivo

human NOP receptor, sequence (P41146 whole entry): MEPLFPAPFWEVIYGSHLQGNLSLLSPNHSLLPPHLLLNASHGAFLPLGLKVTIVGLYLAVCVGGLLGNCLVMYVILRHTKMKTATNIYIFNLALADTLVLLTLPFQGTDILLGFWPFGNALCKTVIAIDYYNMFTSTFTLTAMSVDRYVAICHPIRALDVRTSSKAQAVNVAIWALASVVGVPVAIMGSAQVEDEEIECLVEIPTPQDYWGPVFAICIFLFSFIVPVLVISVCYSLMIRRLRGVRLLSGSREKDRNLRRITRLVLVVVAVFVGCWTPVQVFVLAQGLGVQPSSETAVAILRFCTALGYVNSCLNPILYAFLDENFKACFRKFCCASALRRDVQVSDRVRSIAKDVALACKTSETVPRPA

## CN1CC[C@]23c4c5ccc(O)c4O[C@H]2[C@@H](O)C=C[C@H]3[C@H]1C5 [Morphine, Morphine sulfate]
Human NOP receptor
  [35S]GTPγS NOP % Stim: 5.4 ± 1%
Rhesus monkeys [1]
  ED50: 1 mg/kg
Rhesus monkeys [2]
  tolerance to antinociceptive effects: decrease in antinociceptive effects

## CC(=O)Oc1ccc2c3c1O[C@H]1[C@@H](OC(C)=O)C=C[C@H]4[C@@H](C2)N(C)CC[C@@]341 [heroin, diamorphine HCl]
Rhesus monkeys [3]
  respiratory depression: caused respiratory depression
  time to respiratory depression: < 20 min

## O=C1CC[C@@]2(O)[C@H]3Cc4ccc(O)c5c4[C@@]2(CCN3CC2CC2)[C@H]1O5 [naltrexone, naltrexone HCl]
Rhesus monkeys [4]
  effect of pretreatment on reinforcing effects of oxycodone: effectively attenuated the reinforcing effects of oxycodone

## buprenorphine HCl
Rhesus monkeys [4]
  effect of pretreatment on reinforcing effects of oxycodone: effectively attenuated the reinforcing effects of oxycodone
